The record followed here is US9763901B2 (priority 2015, dated 2017).

The subject of data set [1] is HCV GT1B Replicon. Put plainly: HCV replicon assay (antiviral, luciferase endpoint). Type of data set: cell-based, hepatitis C virus. From the text:
(§1) Stable HCV replicons of different genotypes may be used for anti-HCV evaluation. We use the subgenomic HCV replicons of genotype 1a (H77 strain), 1b (Conl strain), and 2a (JFH-1 strain), which are Huh7 human hepatoma cell lines that contains an HCV replicon.
The HCV replicon antiviral evaluation assay examines the effects of compounds at six serial dilutions. Human interferon alpha-2b (rIFNα-2b) and/or Sofosbuvir are included in each run as a positive control compound.
(§2) Briefly, the replicon cells are plated at 5,000 cells/well into 96-well plates that are dedicated for the analysis of cell numbers (cytotoxicity) or antiviral activity. On the following day, samples are diluted with assay media and added to the appropriate wells. Cells are processed 72 hours later when the cells are still sub-confluent. For the luciferase endpoint assay, HCV replicon levels are assessed as replicon-derived L uc activity. The concentration of drug that reduces cell viability is assessed by the fluorometric CytoTox-1 cell proliferation assay (Promega), (expressed as cell numbers). For the qRT-PCR/TaqMan assay, total RNA is extracted from the replicon cells using RNeasy 96 kit (Qiagen) according to the manufacturer's protocol. Real-time RTPCR/TaqMan assays are performed to measure copy numbers of the replicon RNA and cellular ribosomal RNA. Where applicable EC50 (concentration inhibiting HCV replicon by 50%), EC90 (concentration inhibiting HCV replicon by 90%), CC50 (concentration decreasing cell viability by 50%), CC90 (concentration decreasing cell viability by 90%) and SI (selectivity indices: CC50/EC50 and CC90/EC90) values are derived.
In general terms: In antiviral work, replicon cells carry a viral genome segment that copies itself.

Data set [2] concerns cell culture-derived HCV (HCVcc). Put plainly: microbe, parasite or virus in culture. Type of data set: cell-based, hepatitis C virus. How it is done: (§3) Huh7.5 cells are grown in Dulbecco's modified essential media (DMEM), 10% fetal bovine serum (FBS), 1% penicillin-streptomycin (pen-strep), 1% Non-essential amino acids (NEAA) in a 5% CO2 incubator at 37° C. Huh7.5 cells are seeded at 1×10^4 cells per well into 96-well plates according to Southern Research Institute standard format. Test articles are serially diluted with DMEM plus 5% FBS. The diluted compound in the amount of 50 μl is mixed with equal volume of cell culture-derived HCV (HCVcc), then applied to appropriate wells in the plate. Human interferon alpha-2b (rIFNα-2b) and/or Sofosbuvir are included as a positive control. After 72 hr incubation at 37° C., the cells are lysed for measurement of luciferase activity using Renilla Luciferase Assay System (Promega) according to manufacturer's instruction. The number of cells in each well is determined by CytoTox-1 reagent (Promega). Test articles are tested at 6 serial dilutions in triplicate to derive, if applicable, EC50 and EC90 (concentration inhibiting HCVcc infectivity by 50% and 90%, respectively), CC50 (concentration decreasing cell viability by 50%) and SI (selectivity index: CC50/EC50) values (Table 1).

The nature of data set [3]: Cytotoxicity in HCVcc assay (CytoTox-1). Type of data set: cell-based. The following applies: human, Huh7.5 cells infected with cell culture-derived HCV (HCVcc), In vitro HCV cc assay, read-out: CC50 (concentration decreasing cell viability by 50%). How it is done:
as §3

A short description of data set [4]: Cytotoxicity in HCV replicon cells (CytoTox-1). Type of data set: cell-based. Particulars: human, Huh7 hepatoma cells containing a subgenomic HCV replicon, In vitro HCV replicon assay, post infection, read-out: CC50 (concentration decreasing cell viability by 50%). How it is done: as §1
as §2, with “Where applicable EC50 (concentration inhibiting HCV replicon by 50%), EC90 (concentration inhibiting HCV replicon by 90%), CC50 (concentration decreasing cell viability by 50%), CC90 (concentration decreasing cell viability by 90%) and SI (selectivity indices: CC50/EC50 and CC90/EC90) values are derived.” left out

Molecules are shown by their SMILES.

On to `CCCCOc1ccc(CC(=O)NO)cc1` [Bufexamac], for which the “anti-hepatitis C activity (in words)” value in data set [1] (HCV replicon assay) and in data set [2] (hepatitis C viral infectivity assay) was “significant anti-hepatitis C activity” in each case. Besides, the EC50 came to 11.3 µM in data set [1] (Hepatitis C virus, GT1B, 72 h, read-out: EC50 (concentration inhibiting HCV replicon by 50%)) and 10.2 µM in data set [2] (Hepatitis C virus, Huh7.5, 72 h, read-out: EC50 (concentration inhibiting HCVcc infectivity by 50%)). Besides, the “Selectivity index (CC50/EC50)” value was above 8.85 in data set [1] (In vitro HCV replicon assay) and 9.80 in data set [2] (In vitro HCV cc assay). For the same molecule, the values for the CC50 at 72 h in data set [3] and in data set [4] were 100 µM and above 100 µM, respectively.
